According to patent publication US20200170975A1 (Strongbridge Dublin Limited, priority 2018, published 2020):
Read-outs that look alike come from different tables or passages of the source.

How the values were obtained:
MATE1 = target: T1, MATE1 (Homo sapiens, UniProt Q96FL8)
T1 sequence (Q96FL8 1-570): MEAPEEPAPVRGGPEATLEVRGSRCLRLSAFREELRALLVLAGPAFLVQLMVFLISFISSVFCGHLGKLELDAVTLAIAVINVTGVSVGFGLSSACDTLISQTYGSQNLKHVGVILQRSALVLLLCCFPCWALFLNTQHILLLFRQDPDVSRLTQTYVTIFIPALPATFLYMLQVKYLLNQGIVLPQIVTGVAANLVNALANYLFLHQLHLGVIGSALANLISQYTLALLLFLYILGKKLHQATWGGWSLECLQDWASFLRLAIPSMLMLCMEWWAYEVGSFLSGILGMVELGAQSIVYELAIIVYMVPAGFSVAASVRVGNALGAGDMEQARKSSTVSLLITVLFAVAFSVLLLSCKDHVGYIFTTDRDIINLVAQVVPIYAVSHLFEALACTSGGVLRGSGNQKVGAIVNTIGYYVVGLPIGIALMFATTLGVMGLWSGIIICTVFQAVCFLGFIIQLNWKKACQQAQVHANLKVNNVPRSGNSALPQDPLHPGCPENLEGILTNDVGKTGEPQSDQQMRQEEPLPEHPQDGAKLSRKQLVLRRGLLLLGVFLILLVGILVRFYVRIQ
Experimental: (§1) [^14C]-Metformin (1 mM) was provided as a solid and was prepared in Hank's balanced salt solution (HBSS).
(§2) Cells were plated onto standard 24-well tissue culture plates in cell culture medium 1 to 3 days before the experiment. MATE1 and MATE2-K and control cells were incubated with butyric acid (10 mM) for 24 hours before the experiment to inhibit suppression of the transporter.

MATE2-K = MATE2-K (Homo sapiens, UniProt Q86VL8); conditions: [14C]-Metformin 10 μM
Chain of MATE2-K (Q86VL8 1-566 isoform Q86VL8-3): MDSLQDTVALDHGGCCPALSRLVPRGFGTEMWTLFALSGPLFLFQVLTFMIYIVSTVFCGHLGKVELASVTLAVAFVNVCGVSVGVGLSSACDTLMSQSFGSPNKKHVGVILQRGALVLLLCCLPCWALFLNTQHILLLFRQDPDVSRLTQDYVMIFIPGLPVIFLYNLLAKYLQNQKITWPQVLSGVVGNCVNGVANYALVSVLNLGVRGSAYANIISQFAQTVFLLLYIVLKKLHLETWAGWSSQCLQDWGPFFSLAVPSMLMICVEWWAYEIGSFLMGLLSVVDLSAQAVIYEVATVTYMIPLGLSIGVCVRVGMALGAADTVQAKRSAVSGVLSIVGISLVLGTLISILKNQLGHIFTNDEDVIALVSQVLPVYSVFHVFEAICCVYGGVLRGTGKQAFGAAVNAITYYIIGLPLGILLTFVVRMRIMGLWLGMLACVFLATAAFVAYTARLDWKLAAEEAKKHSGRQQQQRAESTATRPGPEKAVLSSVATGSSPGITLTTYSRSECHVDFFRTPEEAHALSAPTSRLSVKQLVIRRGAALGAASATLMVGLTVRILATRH
Experimental: as §1, §2

BCRP = target: T2, BCRP (Homo sapiens, UniProt Q9UNQ0); experiment: BCRP inhibition: bidirectional transport of prazosin across MDCKII-BCRP and control MDCKII cells
T2 sequence (Q9UNQ0 1-655): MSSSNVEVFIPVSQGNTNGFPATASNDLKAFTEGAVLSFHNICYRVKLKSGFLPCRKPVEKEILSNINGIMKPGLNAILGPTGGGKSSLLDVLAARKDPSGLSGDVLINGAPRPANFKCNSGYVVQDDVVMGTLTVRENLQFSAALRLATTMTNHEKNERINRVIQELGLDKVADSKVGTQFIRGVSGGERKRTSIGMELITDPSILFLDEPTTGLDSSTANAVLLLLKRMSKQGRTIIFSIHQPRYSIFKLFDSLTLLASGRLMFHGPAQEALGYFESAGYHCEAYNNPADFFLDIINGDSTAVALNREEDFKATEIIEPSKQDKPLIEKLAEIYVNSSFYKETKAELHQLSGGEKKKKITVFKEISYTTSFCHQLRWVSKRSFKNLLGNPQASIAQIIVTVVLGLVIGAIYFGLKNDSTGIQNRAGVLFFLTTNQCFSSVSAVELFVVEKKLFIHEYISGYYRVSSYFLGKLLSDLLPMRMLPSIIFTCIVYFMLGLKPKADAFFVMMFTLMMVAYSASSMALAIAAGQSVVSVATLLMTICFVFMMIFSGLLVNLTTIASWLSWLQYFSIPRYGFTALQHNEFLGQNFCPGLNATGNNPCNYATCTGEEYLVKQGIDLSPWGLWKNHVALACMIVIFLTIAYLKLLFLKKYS
Description: MDCKII P-gp, MDCKII BCRP and control MDCKII cells were purchased from the Netherlands Cancer Institute.

P-gp = P-gp (Homo sapiens, UniProt P08183); experiment: P-gp inhibition: bidirectional transport of digoxin across Caco-2 cells
Chain of P-gp (P08183 whole entry): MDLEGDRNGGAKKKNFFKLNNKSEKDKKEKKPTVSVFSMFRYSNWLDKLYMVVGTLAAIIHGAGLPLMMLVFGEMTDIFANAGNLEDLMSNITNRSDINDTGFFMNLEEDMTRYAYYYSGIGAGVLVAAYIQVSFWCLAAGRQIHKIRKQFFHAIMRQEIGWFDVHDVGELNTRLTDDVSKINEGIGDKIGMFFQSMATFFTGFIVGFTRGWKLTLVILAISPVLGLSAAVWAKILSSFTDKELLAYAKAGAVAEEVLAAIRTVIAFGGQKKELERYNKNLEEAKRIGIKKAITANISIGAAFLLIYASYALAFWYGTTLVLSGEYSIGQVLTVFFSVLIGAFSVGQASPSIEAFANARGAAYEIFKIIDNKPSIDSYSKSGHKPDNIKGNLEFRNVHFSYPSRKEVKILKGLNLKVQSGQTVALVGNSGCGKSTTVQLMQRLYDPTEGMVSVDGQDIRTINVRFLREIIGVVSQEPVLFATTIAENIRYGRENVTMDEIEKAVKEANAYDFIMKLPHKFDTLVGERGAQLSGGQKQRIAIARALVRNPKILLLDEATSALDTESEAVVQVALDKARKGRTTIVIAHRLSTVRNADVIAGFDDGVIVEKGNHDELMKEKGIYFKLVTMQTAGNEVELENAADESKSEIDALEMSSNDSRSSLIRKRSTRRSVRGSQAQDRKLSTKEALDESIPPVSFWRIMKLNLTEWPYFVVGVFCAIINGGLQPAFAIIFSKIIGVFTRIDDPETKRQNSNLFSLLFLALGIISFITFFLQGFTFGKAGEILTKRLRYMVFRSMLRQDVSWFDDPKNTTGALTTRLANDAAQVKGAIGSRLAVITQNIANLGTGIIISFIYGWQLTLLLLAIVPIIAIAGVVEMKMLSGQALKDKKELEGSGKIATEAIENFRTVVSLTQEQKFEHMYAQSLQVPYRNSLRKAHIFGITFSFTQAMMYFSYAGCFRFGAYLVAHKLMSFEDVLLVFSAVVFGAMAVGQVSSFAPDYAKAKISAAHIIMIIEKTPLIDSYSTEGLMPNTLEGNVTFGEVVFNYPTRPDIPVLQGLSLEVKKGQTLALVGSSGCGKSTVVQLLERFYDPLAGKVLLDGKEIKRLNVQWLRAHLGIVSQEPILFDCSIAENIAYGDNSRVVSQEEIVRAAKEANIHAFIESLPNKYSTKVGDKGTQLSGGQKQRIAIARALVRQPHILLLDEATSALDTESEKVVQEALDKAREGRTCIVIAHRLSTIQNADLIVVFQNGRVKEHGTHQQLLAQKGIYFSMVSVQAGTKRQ

**Q.** Which “% control” value (MATE1; HEK293 cells, inhibitor 0.1 μm) does the source give for `CCc1nc(N)nc(N)c1-c1ccc(Cl)cc1` [Pyrimethamine] here?
**A.** 14.2%

**Q.** What about the “% control” value (MATE2-K; inhibitor 0.3 μM) of the same molecule?
**A.** 50.6%

**Q.** What does the source list for `Cc1cccc(C)c1OCC(=O)N[C@@H](Cc1ccccc1)[C@@H](O)C[C@H](Cc1ccccc1)NC(=O)[C@H](C(C)C)N1CCCNC1=O` [Lopinavir]?
**A.** Papp Apical to basal (Average ± SD) (BCRP): 3.23e-05 cm/s; Papp Basal to apical (Average ± SD) (BCRP): 37.6 ± 1.6 ×10^−6 cm/sec; Papp Apical to basal (Average ± SD) (BCRP; MDCK): 13.3 ± 10.0 ×10^−6 cm/sec; Papp Basal to apical (Average ± SD) (BCRP; MDCK): 20.9 ± 4.7 ×10^−6 cm/sec

**Q.** `C/C=C/C[C@@H](C)C(=O)[C@H]1C(=O)N[C@@H](C(C)C)C(=O)N(C)CC(=O)N(C)[C@@H](CC(C)C)C(=O)N[C@@H](C(C)C)C(=O)N(C)[C@@H](CC(C)C)C(=O)N[C@@H](C)C(=O)N[C@H](C)C(=O)N(C)[C@@H](CC(C)C)C(=O)N(C)[C@@H](CC(C)C)C(=O)N(C)[C@@H](C(C)C)C(=O)N1C` [Valspodar] was tested. Which “Papp A:B (Average ± SD)” value (P-gp) did it give?
**A.** 9.12 ± 1.34 ×10^−6 cm/sec

**Q.** And the “Papp B:A (Average ± SD)” value (P-gp)?
**A.** 10.0 ± 2.5 ×10^−6 cm/sec

**Q.** Which results are given for `CN/C(=N/CCSCc1nc[nH]c1C)NC#N` [Cimetidine]?
**A.** % control (MATE1; HEK293 cells, inhibitor 10 μm): 19.3%; Background corrected uptake rate (MATE1; HEK293 cells, inhibitor 10 μm): 16.0 pmol/mg/min; Uptake, MATE1 (Average ± SD) (MATE1; MATE1 HEK293 cells, inhibitor 10 μm): 85.2 ± 7.8 pmol/mg protein; Uptake, Control (Average ± SD) (MATE1; control HEK293 cells, inhibitor 10 μm): 5.20 ± 0.63 pmol/mg protein; Uptake, MATE2-K (Average ± SD) (MATE2-K; MATE2-K HEK293 cells, inhibitor 300 μM): 32.3 ± 11.7 pmol/mg protein; % control (MATE2-K; inhibitor 300 μM): 18.1%; Background corrected uptake rate (MATE2-K; inhibitor 300 μM): 4.99 pmol/mg/min; Uptake, Control (Average ± SD) (MATE2-K; control HEK293 cells, inhibitor 300 μM): 7.34 ± 0.20 pmol/mg protein
